This is an account of results in US11452724B2, “Methods for treating amyotrophic lateral sclerosis” (The Regents of the University of Michigan, priority 2018, dated 2022).

Structures are written as SMILES. Where two headings read alike, the source gives them in different places.

The test system of test [1] is NK92 NK cells. As to the kind of experiment: NK cell migration transwell assay. It counts as cell-based. To be noted: IL-15 stimulated NK92 cells, 3 hours. As for the experimental part:
(§1) FIG. 3A-E: Tofacitinib reduces NK cell activity and cytotoxicity. (A) NK cells (NK92 cell line) were treated with tofacitinib either after 30 ng/ml of IL-15 activation overnight (ON) or before IL-15 activation (2-hours) to test its efficacy in inhibiting already activated NK cells (overnight stimulation) or preventing their activation (2-hour stimulation). (B) NK cells cultured Overnight or 2 Hrs with IL-15 were lysed and cytokine expression assessed using qPCR. IL-10, TNF-α, and IFN-γ gene expression was assessed. (C) Intracellular granzyme B and perforin were levels were assessed in NK cells in vitro using flow cytometry. […] (D) NK cell migration was assessed using a transwell assay. […] A chemoattractant (serum or CCL13) was placed on the other side of the transwell and after 3 hours the fluorescent intensity in the chemoattractant half of the well was assessed. (E) NK cytotoxicity was measured using a K562 co-culture assay. […] Cells were then stained with a viability dye and analyzed using flow cytometry. […]
(§2) Experiments were conducted to assess the impact on NK cell migration following tofacitinib treatment (FIG. 3D). […] NK cell chemoattractants (serum or CCL13) were then placed in the other half of the well and the number of NK cells which traversed the membrane were measured. […] Cells were collected, stained with a viability dye, and analyzed using flow cytometry. […]

Test [2] relates to peripheral NK cells. To be noted: human patients; van Vollenhoven et al. 2019, van Gurp et al. 2008; cited from earlier work.
Test [3] relates to NK cells, CD4 T cells. To be noted: cited from earlier work.
For test [4], the system named is NK92 NK cell line. As to the kind of experiment: Cytokine gene expression by qPCR in IL-15 stimulated NK92 cells. It counts as cell-based. Particulars: 30 ng/ml IL-15, tofacitinib treatment (Overnight IL-15) or pre-treatment (2 Hr IL-15). As for the experimental part: as §1
To test this possibility, experiments were conducted that utilized the well-characterized NK92 NK cell line to assess tofacitinib's impact on NK cell activation and cytotoxicity in vitro. […] First, NK cells from these two conditions were collected, lysed, and cytokine expression gene expression was assessed using qPCR (FIG. 3B).

The test system of test [5] is NK92 NK cells co-cultured with K562 cancer cells. As to the kind of experiment: NK cytotoxicity K562 co-culture assay. Particulars: 4:1 NK:K562 ratio overnight; even following overnight IL-15 stimulation. It counts as cell-based. How it is done:
as §1, §2

Test [6] concerns NK92 NK cell line. The test can be described thus: Intracellular granzyme B and perforin levels in NK cells by flow cytometry. It counts as cell-based. As for the experimental part:
FIG. 3A-E: Tofacitinib reduces NK cell activity and cytotoxicity. (A) NK cells (NK92 cell line) were treated with tofacitinib either after 30 ng/ml of IL-15 activation overnight (ON) or before IL-15 activation (2-hours) to test its efficacy in inhibiting already activated NK cells (overnight stimulation) or preventing their activation (2-hour stimulation). (B) NK cells cultured Overnight or 2 Hrs with IL-15 were lysed and cytokine expression assessed using qPCR. IL-10, TNF-α, and IFN-γ gene expression was assessed. (C) Intracellular granzyme B and perforin were levels were assessed in NK cells in vitro using flow cytometry. Fluorescent intensity was plotted for unstimulated NK cells in serum free conditions (negative control; blue), serum-stimulated NK cells (positive control; red), IL-15 stimulated NK cells (30 ng/ml IL-15; orange), or tofacitinib treated NK cells (30 ng/ml IL-15+ tofacitinib; green). (D) NK cell migration was assessed using a transwell assay. NK92 cells were fluorescently labeled and placed on one side of a well separated by a porous membrane. A chemoattractant (serum or CCL13) was placed on the other side of the transwell and after 3 hours the fluorescent intensity in the chemoattractant half of the well was assessed. (E) NK cytotoxicity was measured using a K562 co-culture assay. […] Cells were then stained with a viability dye and analyzed using flow cytometry. […]

For test [7], the system named is peripheral NK cells. To be noted: mice; Shimaoka et al. 2017; cited from earlier work.

In the case of `C[C@@H]1CCN(C(=O)CC#N)C[C@@H]1N(C)c1ncnc2[nH]ccc12` [tofacitinib], in test [1] (CCL13 as chemoattractant), the “NK cell migration in response to CCL13” value is reported as “more robust suppression”. Besides, the “NK cell migration in response to serum” value in test [1] (serum as chemoattractant) is reported as “modest reduction”. In addition, the “peripheral NK cells” value in test [2] and in test [7] was “capable of reducing” in each case. Moreover, the NK cell levels entry in test [3] (Hodge et al. 2016, van Gurp et al. 2008) is “reduced in a dose dependent manner”. Besides, the “CD4 T cell levels” value in test [3] (van Gurp et al. 2008) is “maintaining”. Also, the IFN-γ gene expression entry in test [4] was “significantly reduced”. Besides, the IL-10 gene expression entry in test [4] was “significantly reduced”. In addition, in test [5], the “NK cell-mediated killing (K562 survival)” value is “ameliorated”. Moreover, in test [6] (NK cells stimulated with IL-15, particularly when treated with tofacitinib prior to IL-15 stimulation), the intracellular perforin levels entry is “reduced”. Further, in test [6] (NK cells stimulated with IL-15 overnight or for two hours, flow cytometry), the “intracellular granzyme B levels” value is given as “modest effect”.
